Experiments:
[1] = target: CXCR-4 transfected U87 cell line (U87.CXCR4) (Homo sapiens (Human), UniProt P61073); experiment: Intracellular CXCL-12-induced calcium mobilization assay (FLIPR); assay type: cell-based; details: U87.CXCR4 cells, CXCL-12 25-50 ng/mL; read-out: IC50 CXCL-12 Ca2+ flux U87.CXCR4+
Description: Example 28: REGA Screening Assay
Intracellular CXCL-12-Induced Calcium Mobilization Assay
Intracellular calcium mobilization induced by chemokines or chemokine-derived peptides were evaluated using a calcium responsive fluorescent probe and a FLIPR system. The CXCR-4 transfected U87 cell line (U87.CXCR4) cells were seeded in gelatine-coated black-wall 96-well plates at 20,000 cells per well and incubated for 12 hours. Cells were then loaded with the fluorescent calcium probe Fluo-2 acetoxymethyl at 4 μM final concentration in assay buffer (Hanks' balanced salt solution with 20 mM HEPES buffer and 0.2% bovine serum albumin, pH 7.4) for 45 min at 37° C. The intracellular calcium mobilization induced by the CXCL-12 (25-50 ng/mL) was then measured at 37° C. by monitoring the fluorescence as a function of time in all the wells simultaneously using a fluorometric imaging plate reader (FLIPR Tetra, Molecular Devices).

[2] = target: Jurkat cells expressing CXCR4 (Homo sapiens (Human), UniProt P61073); experiment: Chemokine (CXCL12-AF647) binding inhibition assay; details: CXCL12-AF647 25 ng/mL, read-out: IC50 CXCL-12 binding Jurkat
Description: Chemokine (CXCL12-AF647) Binding Inhibition Assay
Jurkat cells expressing CXCR4 were washed once with assay buffer (Hanks' balanced salt solution with 20 mM HEPES buffer and 0.2% bovine serum albumin, pH 7.4) and then incubated for 15 min at room temperature with the test compounds diluted in assay buffer at dose-dependent concentrations. Subsequently, CXCL12-AF647 (25 ng/mL) was added to the compound-incubated cells. The cells were incubated for 30 min at room temperature. Thereafter, the cells were washed twice in assay buffer, fixed in 1% paraformaldehyde in PBS, and analyzed on the FL4 channel of a FACSCalibur flow cytometer equipped with a 635-nm red diode laser (Becton Dickinson, San Jose, Calif., USA).
The percentages of inhibition of CXCL12-AF647 binding were calculated according to the formula: [1−((MFI−MFINC)/(MFIPC−MFINC))]×100 where MFI is the mean fluorescence intensity of the cells incubated with CXCL12-AF647 in the presence of the inhibitor, MFINC is the mean fluorescence intensity measured in the negative control (i.e., autofluorescence of unlabeled cells), and MFIPC is the mean fluorescence intensity of the positive control (i.e., cells exposed to CXCL12-AF647 alone).

in vitro = details: human, Caco-2, pH 7.4
Description: Example 28: Caco-2 Permeability Assay
The goal of this assay was to evaluate the intestinal absorption potential of drug candidates using Caco-2 cell lines.
1. Prewarm Prewarm HBSS Buffer in 37° C. water bath
2. Sonicate Take compounds from −20° C., sonicate for a few minutes (no less than 1 minute)
HBSS buffer with 0.3% DMSO and 5 μM LY: add 150 μL DMSO and 50 μL LY (5 mM) into 50 ml HBSS buffer (pH 7.4).
HBSS buffer with 0.1% DMSO and 5 μM LY: add 50 μL DMSO and 50 μL LY (5 mM) into 50 mL HBSS buffer (pH 7.4).
HBSS buffer with 0.3% DMSO: add 150 μL DMSO into 50 ml HBSS buffer (pH 7.4).
HBSS buffer with 0.1% DMSO: add 50 μL DMSO into 50 ml HBSS buffer (pH 7.4).
Receiver Solution Buffer:
Prepare HBSS buffer with 0.4% DMSO: add 200 μL DMSO into 50 ml HBSS buffer (pH 7.4).
Prepare HBSS buffer with 0.4% DMSO and 5 μM LY: add 200 μL DMSO and 50 μL LY (5 mM) into 50 ml HBSS buffer (pH 7.4).
4. Measure TEER Take cell culture plate out of incubator, wash the cell monolayers with HBSS buffer, and then measure TEER values at Rm temperature. 5. Centrifuge Centrifuge the compound solution (from step 3) at 4000 rpm for 5 min before loading to donor chambers. 6. Dosing Add solution based on the volumes listed in the following table (make sure to take extra 100 μL of donor sample for TO as Backup).
7. Apical LYT0 Samples To determine LY concentration in the apical chember, take 100 μL sample from apical chambers into an opaque plate for LYT0. 8. Prewarm Prewarm apical and basolateral plates at 37° C. for about 5 min, then begin transport by placing the apical plate onto basolateral plate. 9. Incubation Keep the plates in incubator at 37° C. for 90 min. 10. Standard Curve Preparation
For 300 μM compound solution, add 6 μL of compound stock solution into 192 μL of MeOH/H2O (1:1).
Prepare Working Solution in MeOH/H2O (1:1)
3 μL (20×)+57 μL of 0.4% DMSO HBSS+60 μL ACN with IS (Osalmid or Imipramine) - - - 120 μL (1×)
11. Transport Termination Separate the apical plate from the basolateral plate after 90-min incubation.
12. Measure LY Take 100 μL samples from basolateral plate to an opaque plate as LYT90.
13. Measure LY concentrations for LYT0 and LYT90 by Fluorometer (at excitation of 485 nm/emission of 535 nm).
Study details: Test concentration 10 μM
Test systems: Caco-2/HBSS solution
Incubation conditions: 0, 90 min at 37° C.
Sample size: Duplicates (n=2)
Bioanalytical method: LC-MS/MS
For Millicell-24 Cell Culture Plates: surface area of the membrane=0.7 cm^2, VA=0.8 mL (A-to-B) or 0.4 mL (B-to-A)
1. Papp values were calculated based on calculated concentrations.
The compound numbers correspond to the compound numbers in Table 1.

CXCR-4 transfected U87 cell line (U87.CXCR4), sequence (P61073 whole entry): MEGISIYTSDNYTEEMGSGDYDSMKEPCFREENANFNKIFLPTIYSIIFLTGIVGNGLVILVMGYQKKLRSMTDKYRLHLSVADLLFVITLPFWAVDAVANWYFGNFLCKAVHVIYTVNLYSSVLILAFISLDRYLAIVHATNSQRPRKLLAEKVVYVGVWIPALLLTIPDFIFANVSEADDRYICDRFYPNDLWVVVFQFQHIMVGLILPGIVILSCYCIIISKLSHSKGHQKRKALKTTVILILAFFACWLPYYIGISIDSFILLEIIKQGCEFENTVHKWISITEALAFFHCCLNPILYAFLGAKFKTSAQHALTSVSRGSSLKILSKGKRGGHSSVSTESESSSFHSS
Jurkat cells expressing CXCR4, sequence (P61073 whole entry): as above

SMILES	IC50 [1] [nM]	IC50 [2] [nM]	Papp A→B at 90 min, 10 μM (in vitro) [×10⁻⁶ cm/s]	Papp B→A at 90 min, 10 μM (in vitro) [×10⁻⁶ cm/s]	efflux ratio at 90 min, 10 μM (in vitro)
Cc1cccnc1[C@@H]1CCC[C@H](c2nc3cccc(N4CCN(C5CC5)CC4)n3c2Cl)N1C [Compound I-93]	100 to 1000	0.01 to 100	10 to 30	0.1 to 10	0.1 to 10
Cc1cccnc1[C@@H]1CCC[C@H](c2cn3c(N4CC5CCC(C4)N5)cccc3n2)N1C [Compound I-109]	100 to 1000	0.01 to 100	0.1 to 10	10 to 30	> 30
Cc1cccnc1[C@@H]1CCC[C@H](c2nc3ccccn3c2-c2cccnc2)N1 [Compound I-208]	≥ 1000	≥ 1000	10 to 30	10 to 30	0.1 to 10
Cc1cccnc1[C@@H]1CCC[C@H](c2cn3c(N4CCN(C5CCOCC5)CC4)cccc3n2)N1C [Compound I-53]	100 to 1000	0.01 to 100	0.1 to 10	10 to 30	0.1 to 10
Cc1cccnc1[C@H]1CCC[C@@H](c2nc3ccccn3c2CCCN2CCN(C)CC2)N1C (stereo in doubt) [Compound I-25]	0.01 to 100	0.01 to 100	0.1 to 10	10 to 30	> 30
CN1C2CCC1CN(c1cccc3nc([C@H]4CCC[C@@H](c5ncccc5Cl)N4)cn13)C2 [Compound I-181]	0.01 to 100	0.01 to 100	0.1 to 10	10 to 30	0.1 to 10
C/C=C/c1c([C@H]2CCC[C@@H](c3ncccc3C)N2C)nc2cccc(N3CCN(C)CC3)n12 [Compound I-141]	100 to 1000	0.01 to 100	0.1 to 10	10 to 30	0.1 to 10
CC(C)c1cccnc1[C@@H]1CCC[C@H](c2nc3cccc(N4CCN(C)CC4)n3c2Cl)N1C [Compound I-91]	≥ 1000	100 to 1000	0.1 to 10	0.1 to 10	0.1 to 10
Cc1cccnc1[C@H]1CCC[C@@H](c2nc3cccc(N4CCN(C)CC4)n3c2F)N1C (stereo in doubt) [Compound I-34]	0.01 to 100	0.01 to 100	10 to 30	0.1 to 10	0.1 to 10
CN1CCN(c2cccc3nc([C@H]4CCC[C@@H](c5ncccc5C5CC5)N4)c(Cl)n23)CC1 [Compound I-180]	0.01 to 100	0.01 to 100	10 to 30	10 to 30	0.1 to 10
Cc1cccnc1[C@H]1CCC[C@@H](c2nc3cccc(N4CCN(C)CC4)n3c2C)N1 (stereo in doubt) [Compound I-192]	0.01 to 100	0.01 to 100	0.1 to 10	10 to 30	0.1 to 10
CCOCc1c([C@H]2CCC[C@@H](c3ncccc3C)N2C)nc2cccc(N3CCN(C(C)C)CC3)n12 [Compound I-57]	0.01 to 100	0.01 to 100	0.1 to 10	10 to 30	0.1 to 10
CCN1[C@@H](c2cn3c(N4CCN(C(C)C)CC4)cccc3n2)CCC[C@H]1c1ncccc1C [Compound I-37]	0.01 to 100	0.01 to 100	0.1 to 10	10 to 30	0.1 to 10
Cc1cccnc1[C@@H]1CCC[C@H](c2cn3c(N4C5CCC4CN(C)C5)cccc3n2)N1C [Compound I-69]	0.01 to 100	0.01 to 100	0.1 to 10	10 to 30	0.1 to 10
Cc1cccnc1[C@@H]1CCC[C@H](c2nc3cccc(N4CCN(C(C)C)CC4)n3c2CO)N1C [Compound I-50]	0.01 to 100	0.01 to 100	0.1 to 10	10 to 30	10 to 30
Cc1cccnc1[C@@H]1CCC[C@H](c2nc3cccc(N4C5CCC4CN(C)C5)n3c2Cl)N1C [Compound I-138]	0.01 to 100	0.01 to 100	10 to 30	10 to 30	0.1 to 10
CCN1[C@@H](c2nc3cccc(N4CCN(C(C)C)CC4)n3c2Br)CCC[C@H]1c1ncccc1C [Compound I-45]	≥ 1000	100 to 1000	0.1 to 10	0.1 to 10	0.1 to 10
CN1CCN(c2cccc3nc([C@H]4CCC[C@@H](c5ncccc5Cl)N4)cn23)CC12CC2 [Compound I-160]	≥ 1000	100 to 1000	10 to 30	10 to 30	0.1 to 10
Cc1cccnc1[C@@H]1CCC[C@H](c2nc3ccccn3c2CN2CCN(C(C)C)CC2)N1C [Compound I-39]	100 to 1000	0.01 to 100	0.1 to 10	> 30	10 to 30
Cc1cccnc1[C@@H]1CCC[C@H](c2nc3cccc(N4CCN(C(C)C)CC4)n3c2Cl)N1C [Compound I-92]	0.01 to 100	0.01 to 100	0.1 to 10	0.1 to 10	0.1 to 10
CN1CCN(c2cccc3nc([C@H]4CCC[C@@H](c5ncccc5C(F)(F)F)N4C)cn23)CC1 [Compound I-80]	100 to 1000	0.01 to 100	0.1 to 10	0.1 to 10	0.1 to 10
CN(C)C1CCN(c2cccc3nc([C@H]4CCC[C@@H](c5ncccc5Cl)N4C)cn23)CC1 [Compound I-142]	0.01 to 100	0.01 to 100	0.1 to 10	10 to 30	0.1 to 10
Cc1cccnc1[C@@H]1CC(=O)C[C@H](c2cn3c(N4CCN(C)CC4)cccc3n2)N1C [Compound I-3]	0.01 to 100	0.01 to 100	0.1 to 10	0.1 to 10	0.1 to 10

From patent US10759796B2, “CXCR4 inhibitors and uses thereof” (X4 Pharmaceuticals, Inc., priority 2016, dated 2020)
